# In patent US20120135923A1, “Use of Melanocortins to Treat Dyslipidemia” (IPSEN PHARMA, S.A.S., priority 2009, published 2012):
# pEC50: −log10 of the molar value. Read-outs that look alike come from different tables or passages of the source. Bridge positions count the residues as written; N and C are the ends. Square brackets hold non-standard residues; d marks the D form. Peptide text beside a SMILES is read from it. d2Nal = N[C@H](Cc1ccc2ccccc2c1)C(=O)O; Bta = N[C@@H](Cc1csc2ccccc12)C(=O)O; Nle = CCCC[C@H](N)C(=O)O; Ava = NCCCCC(=O)O; βAla = NCCC(=O)O
# Assays:
# Test in all cases: cyclic AMP bioassay (ECL) in CHO-K1 cells
# Type in all cases: cell-based
# [1] = biological target: T1, hMC3-R (Homo sapiens, UniProt P41968)
# T1 construct: expressed in transfected cells; host or cells: CHO-K1
# [2] = biological target: T2, hMC4-R (Homo sapiens, UniProt P32245)
# T2 construct: expressed in transfected cells; host or cells: CHO-K1
# Experimental: Intracellular cyclic AMP (cAMP) levels were determined by an electrochemiluminescence (ECL) assay (Meso Scale Discovery®, Gaithersburg, Md.; referred to hereinafter as MSD). […] Transgenic CHO-K1 cells stably expressing hMC receptor subtypes 1, 3, 4 or 5 were dispensed at a density of approximately 7,000 cells/well in 384-well Multi-Array®plates (MSD) containing integrated carbon electrodes and coated with anti-cAMP antibody. Increasing concentrations of the test compounds were added and the cells were incubated for approximately 40 minutes at approximately 37° C. […] At the end of the second incubation period read buffer (Tris-buffered solution containing an ECL co-reactant and Triton X-100 at ph 7.8) was added and the cAMP levels in the cell lysates were immediately determined by ECL detection with a Sector Imager 6000 Reader® (MSD). Data were analyzed using a computer-assisted non-linear regression analysis (XL fit; IDBS) and reported as either an EC50 value or a Kb value.
# The Kb value reflects the potency of an antagonist and is determined by Schild analysis. In brief, concentration-response curves of an agonist are carried out in the presence of increasing concentrations of an antagonist. […] It is calculated by extrapolating the line on a Schild plot to zero on the y-axis.
# [3] = biological target: T3, hMC5-R (Homo sapiens, UniProt P33032)
# T3 construct: expressed in transfected cells; host or cells: CHO-K1
# [4] = biological target: T4, hMC1-R (Homo sapiens, UniProt Q01726)
# T4 construct: expressed in transfected cells; host or cells: CHO-K1
# [5] = Table 9A/9B, read-out: EC50 hMC5-R
# [6] = Table 9A/9B, read-out: EC50 hMC1-R
# [7] = Table 9A/9B, read-out: EC50 hMC3-R
# [8] = Table 9A/9B, read-out: EC50 hMC4-R
# T3 sequence (P33032 whole entry): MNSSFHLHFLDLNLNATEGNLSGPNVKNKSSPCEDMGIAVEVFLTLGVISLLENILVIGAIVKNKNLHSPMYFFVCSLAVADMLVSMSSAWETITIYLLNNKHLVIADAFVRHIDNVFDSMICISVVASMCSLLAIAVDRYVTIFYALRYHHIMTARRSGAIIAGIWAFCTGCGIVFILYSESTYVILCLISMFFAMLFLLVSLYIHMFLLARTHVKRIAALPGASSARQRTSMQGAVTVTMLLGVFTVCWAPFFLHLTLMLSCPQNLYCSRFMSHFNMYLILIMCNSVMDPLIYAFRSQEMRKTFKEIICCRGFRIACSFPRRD
# T2 sequence (P32245 whole entry): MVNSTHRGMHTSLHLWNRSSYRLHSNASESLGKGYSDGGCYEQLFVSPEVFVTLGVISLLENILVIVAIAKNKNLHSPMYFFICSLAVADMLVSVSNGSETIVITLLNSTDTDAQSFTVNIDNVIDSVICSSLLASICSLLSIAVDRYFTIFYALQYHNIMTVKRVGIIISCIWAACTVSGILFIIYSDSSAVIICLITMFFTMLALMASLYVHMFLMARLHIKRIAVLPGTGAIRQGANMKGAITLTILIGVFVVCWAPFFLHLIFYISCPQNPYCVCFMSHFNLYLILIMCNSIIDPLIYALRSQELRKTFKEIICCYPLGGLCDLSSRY
# T1 sequence (P41968 whole entry): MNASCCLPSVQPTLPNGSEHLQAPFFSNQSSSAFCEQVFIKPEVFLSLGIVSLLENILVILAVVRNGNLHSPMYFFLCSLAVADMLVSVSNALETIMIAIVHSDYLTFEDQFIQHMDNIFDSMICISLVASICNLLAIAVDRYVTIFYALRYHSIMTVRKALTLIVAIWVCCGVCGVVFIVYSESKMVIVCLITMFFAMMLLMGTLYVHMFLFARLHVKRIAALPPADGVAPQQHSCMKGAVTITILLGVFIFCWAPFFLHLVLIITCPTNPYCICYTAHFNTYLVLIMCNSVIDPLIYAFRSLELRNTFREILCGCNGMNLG
# T4 sequence (Q01726 whole entry): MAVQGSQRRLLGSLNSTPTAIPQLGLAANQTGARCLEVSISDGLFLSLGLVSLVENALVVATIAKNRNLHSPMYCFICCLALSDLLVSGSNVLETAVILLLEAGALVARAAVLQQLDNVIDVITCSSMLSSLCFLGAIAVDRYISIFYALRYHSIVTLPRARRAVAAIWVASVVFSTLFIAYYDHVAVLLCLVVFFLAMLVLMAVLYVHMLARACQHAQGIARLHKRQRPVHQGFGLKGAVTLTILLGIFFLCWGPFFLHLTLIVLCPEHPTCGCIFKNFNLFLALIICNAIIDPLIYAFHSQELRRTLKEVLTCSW
Structure (SMILES),pEC50 [1],pEC50 [2],"pEC50 [3, 5]","pEC50 [4, 6]","pEC50 [1, 7]","pEC50 [2, 8]",also measured
CCCC[C@@H](C(=O)N[C@H]1CSSC[C@@H](C(N)=O)NC(=O)[C@H](Cc2c[nH]c3ccccc23)NC(=O)[C@H](CCCNC(=N)N)NC(=O)[C@@H](Cc2ccccc2)NC(=O)[C@H](Cc2cnc[nH]2)NC(=O)[C@@H](C)NC1=O)N1C(=O)N[C@@H](C(C)C)C1=O [Hydantoin(C(O)-(Val-Nle))-c(Cys-D-Ala-His-D-Phe-Arg-Trp-Cys)-NH2],8.34,9.01,,,,,
CC(=O)N[C@H]1CSSC[C@@H](C(=O)N2CCC[C@H]2C(=O)N2CCC[C@H]2C(=O)N[C@@H](CCCCN)C(=O)N[C@@H](CC(=O)O)C(=O)NCCC(=O)N[C@@H](Cc2ccc(O)cc2)C(=O)NCC(=O)N[C@@H](CCCNC(=N)N)C(=O)N[C@@H](CCCNC(=N)N)C(=O)N[C@@H](CCCNC(=N)N)C(=O)N[C@@H](CCCNC(=N)N)C(=O)N[C@@H](CCCNC(=N)N)C(=O)N[C@@H](CCC(N)=O)C(=O)N[C@@H](CCCNC(=N)N)C(=O)N[C@@H](CCCNC(=N)N)C(=O)N[C@@H](CCCNC(=N)N)C(N)=O)NC(=O)[C@H](C)NC(=O)[C@H](Cc2csc3ccccc23)NC(=O)[C@H](CCCNC(=N)N)NC(=O)[C@@H](Cc2ccc3ccccc3c2)NC(=O)[C@H](Cc2c[nH]cn2)NC(=O)[C@H](CCC(=O)O)NC1=O (Ac-CEH[d2Nal]R[Bta]ACPPKD[βAla]YGRRRRRQRRR-NH2; disulfide 1-8),,,,,,,pEC50 [3]: 6.06; pEC50 [4]: 6.94; Kb [1]: 44.6 nM; Kb [2]: 28.4 nM
N=C(N)NCCC[C@@H]1NC(=O)[C@@H](Cc2ccccc2)NC(=O)[C@H](Cc2cnc[nH]2)NC(=O)[C@H](CCC(=O)O)NC(=O)[C@@H](NC(=O)CN2C(=O)CNC2=O)CSSC[C@@H](C(N)=O)NC(=O)[C@H](Cc2c[nH]c3ccccc23)NC1=O [Hydantoin(C(O)-(Gly-Gly))-c(Cys-Glu-His-D-Phe-Arg-Trp-Cys)-NH2],,,,,,,"pEC50 ([4]; Table 11, read-out: EC50 hMC1): 6.91; pEC50 ([1]; Table 11, read-out: EC50 hMC3): 8.09"
N=C(N)NCCC[C@@H]1NC(=O)[C@@H](Cc2ccccc2)NC(=O)[C@H](Cc2c[nH]cn2)NC(=O)[C@H](CCC(=O)O)NC(=O)[C@@H](NC(=O)CN2C(=O)N[C@@H](CCCNC(=N)N)C2=O)CSSC[C@@H](C(N)=O)NC(=O)[C@H](Cc2c[nH]c3ccccc23)NC1=O [Hydantoin(C(O)-(Arg-Gly))-c(Cys-Glu-His-D-Phe-Arg-Trp-Cys)-NH2],,,,,,,"pEC50 ([3]; Table 11, read-out: EC50 hMC5): 5.40; pEC50 ([4]; Table 11, read-out: EC50 hMC1): 8.05; pEC50 ([1]; Table 11, read-out: EC50 hMC3): 8.10; pEC50 ([2]; Table 11, read-out: EC50 hMC4): 10.01"
CCCC[C@H](NC(C)=O)C(=O)N[C@H]1CSSC[C@@H](C(N)=O)NC(=O)[C@H](Cc2c[nH]c3ccccc23)NC(=O)[C@H](CCCNC(=N)N)NC(=O)[C@@H](Cc2ccccc2)NC(=O)[C@H](Cc2c[nH]cn2)NC(=O)[C@@H](CC(C)C)NC1=O [Ac-Nle-c(Cys-D-Leu-His-D-Phe-Arg-Trp-Cys)-NH2],,,7.11,8.49,9.33,10.04,
CCCC[C@H](NC(C)=O)C(=O)N[C@H]1CC(=O)NCCCC[C@@H](C(N)=O)NC(=O)CCNC(=O)[C@H](Cc2c[nH]c3ccccc23)NC(=O)[C@H](CCCNC(=N)N)NC(=O)[C@@H](Cc2ccccc2)NC(=O)[C@H](Cc2c[nH]cn2)NC1=O [Ac-Nle-c(Asp-His-D-Phe-Arg-Trp-β-Ala-Lys)-NH2],,,8.55,9.08,9.84,9.89,
CC(=O)N[C@@H](CCC1CCCCC1)C(=O)N[C@H]1CC(=O)NCCCC[C@@H](C(N)=O)NC(=O)CCCNC(=O)[C@H](Cc2c[nH]c3ccccc23)NC(=O)[C@H](CCCNC(=N)N)NC(=O)[C@@H](Cc2ccccc2)NC(=O)[C@H](Cc2c[nH]cn2)NC1=O [Ac-hCha-c(Asp-His-D-Phe-Arg-Trp-Gaba-Lys)-NH2],,,6.38,8.64,8.48,8.14,
C[C@H]1NC(=O)[C@@H](NC(=O)CN2C(=O)N[C@@H](CCCNC(=N)N)C2=O)CSSC[C@@H](C(N)=O)NC(=O)[C@H](Cc2c[nH]c3ccccc23)NC(=O)[C@H](CCCNC(=N)N)NC(=O)[C@@H](Cc2ccccc2)NC(=O)[C@H](Cc2cnc[nH]2)NC1=O [Hydantoin(C(O)-(Arg-Gly))-c(Cys-D-Ala-His-D-Phe-Arg-Trp-Cys)-NH2],7.74,9.30,,,,,pEC50 [4]: 8.06
CCCC[C@H](NC(C)=O)C(=O)N[C@H]1CC(=O)NCCCC[C@@H](C(N)=O)NC(=O)[C@H](Cc2csc3ccccc23)NC(=O)[C@H](CCCNC(=N)N)NC(=O)[C@@H](Cc2ccccc2)NC(=O)[C@H](Cc2c[nH]cn2)NC(=O)[C@@H](C)NC1=O [Ac-Nle-c(Asp-D-Ala-His-D-Phe-Arg-Bal-Lys)-NH2] (Ac-[Nle]D[dA]H[dF]R[Bta]K-NH2; lactam 2-8),,,< 5.00,9.03,8.49,8.78,
CCCC[C@H](N)C(=O)N[C@H]1CSSC[C@@H](C(N)=O)NC(=O)CCCCNC(=O)[C@H](Cc2c[nH]c3ccccc23)NC(=O)[C@H](CCCNC(=N)N)NC(=O)[C@@H](Cc2ccccc2)NC(=O)[C@H](Cc2c[nH]cn2)NC1=O [Nle-c(Cys-His-D-Phe-Arg-Trp-Apn-Cys)-NH2] (H-[Nle]CH[dF]RW[Ava]C-NH2; disulfide 2-8),,,8.51,9.51,9.57,10.74,
CCCC[C@H](NC(C)=O)C(=O)N[C@H]1CC(=O)NCCCC[C@@H](C(N)=O)NC(=O)CCCNC(=O)[C@H](Cc2c[nH]c3ccccc23)NC(=O)[C@H](CCCNC(=N)N)NC(=O)[C@@H](Cc2ccccc2)NC(=O)[C@H](Cc2c[nH]cn2)NC1=O [Ac-Nle-c(Asp-His-D-Phe-Arg-Trp-Gaba-Lys)-NH2],,,8.46,8.86,9.20,9.88,
CCCC[C@H](NC(C)=O)C(=O)N[C@H]1CC(=O)NCCCC[C@@H](C(N)=O)NC(=O)[C@H](C)NC(=O)[C@H](Cc2c[nH]c3ccccc23)NC(=O)[C@H](CCCNC(=N)N)NC(=O)[C@@H](Cc2ccc3ccccc3c2)NC(=O)[C@H](Cc2c[nH]cn2)NC1=O [Ac-Nle-c(Asp-His-D-2-Nal-Arg-Trp-Ala-Lys)-NH2],,,,,,,"pEC50 ([4]; Table 9C/9D, read-out: EC50 hMC1-R): 9.21"
CC(=O)N[C@H]1CSSC[C@@H](C(=O)N2CCC[C@H]2C(=O)N2CCC[C@H]2C(=O)N[C@@H](CCCCN)C(=O)N[C@@H](CC(=O)O)C(=O)NCCC(=O)N[C@@H](Cc2ccc(O)cc2)C(=O)NCC(=O)N[C@@H](CCCNC(=N)N)C(=O)N[C@@H](CCCNC(=N)N)C(=O)N[C@@H](CCCCN)C(=O)N[C@@H](CCCNC(=N)N)C(=O)N[C@@H](CCCNC(=N)N)C(=O)N[C@@H](CCC(N)=O)C(=O)N[C@@H](CCCNC(=N)N)C(=O)N[C@@H](CCCNC(=N)N)C(=O)N[C@@H](CCCNC(=N)N)C(N)=O)NC(=O)[C@H](C)NC(=O)[C@H](Cc2csc3ccccc23)NC(=O)[C@H](CCCNC(=N)N)NC(=O)[C@@H](Cc2ccc3ccccc3c2)NC(=O)[C@H](Cc2c[nH]cn2)NC(=O)[C@H](CCC(=O)O)NC1=O,,,,,,,pEC50 [3]: 6.80; pEC50 [4]: 7.70; Kb [1]: 37.8 nM; Kb [2]: 8.43 nM
CCCC[C@@H]1NC(=O)N(CC(=O)N[C@H]2CSSC(C)(C)[C@@H](C(N)=O)NC(=O)[C@H](Cc3c[nH]c4ccccc34)NC(=O)[C@H](CCCNC(=N)N)NC(=O)[C@@H](Cc3ccccc3)NC(=O)[C@H](Cc3cnc[nH]3)NC(=O)[C@@H](C)NC2=O)C1=O [Hydantoin(C(O)-(Nle-Gly))-c(Cys-D-Ala-His-D-Phe-Arg-Trp-Pen)-NH2],7.67,9.23,,,,,pEC50 [3]: 6.45; pEC50 [4]: 7.77
C[C@H]1NC(=O)[C@@H](NC(=O)[C@H](CCCNC(=N)N)N2C(=O)CNC2=O)CSSC[C@@H](C(N)=O)NC(=O)[C@H](Cc2c[nH]c3ccccc23)NC(=O)[C@H](CCCNC(=N)N)NC(=O)[C@@H](Cc2ccccc2)NC(=O)[C@H](Cc2cnc[nH]2)NC1=O [Hydantoin(C(O)-(Gly-Arg))-c(Cys-D-Ala-His-D-Phe-Arg-Trp-Cys)-NH2],8.29,9.22,,,,,pEC50 [4]: 8.05
CCCC[C@H](NC(C)=O)C(=O)N[C@@H]1C(=O)N[C@H](C)C(=O)N[C@@H](Cc2c[nH]cn2)C(=O)N[C@H](Cc2ccccc2)C(=O)N[C@@H](CCCNC(=N)N)C(=O)N[C@@H](Cc2c[nH]c3ccccc23)C(=O)N[C@H](C(N)=O)CSSC1(C)C [Ac-Nle-c(Pen-D-Ala-His-D-Phe-Arg-Trp-Cys)-NH2],8.72,9.27,,,,,
CCCC[C@H](NC(C)=O)C(=O)N[C@H]1CSSC[C@@H](C(N)=O)NC(=O)CCCCNC(=O)[C@H](Cc2c[nH]c3ccccc23)NC(=O)[C@H](CCCNC(=N)N)NC(=O)[C@@H](Cc2ccccc2)NC(=O)[C@H](Cc2c[nH]cn2)NC1=O [Ac-Nle-c(Cys-His-D-Phe-Arg-Trp-Apn-Cys)-NH2] (Ac-[Nle]CH[dF]RW[Ava]C-NH2; disulfide 2-8),,,8.76,9.12,9.70,10.31,
C[C@@H]1NC(=O)N(CC(=O)N[C@H]2CSSC[C@@H](C(N)=O)NC(=O)[C@H](Cc3c[nH]c4ccccc34)NC(=O)[C@H](CCCNC(=N)N)NC(=O)[C@@H](Cc3ccccc3)NC(=O)[C@H](Cc3cnc[nH]3)NC(=O)[C@@H](C)NC2=O)C1=O [Hydantoin(C(O)-(Ala-Gly))-c(Cys-D-Ala-His-D-Phe-Arg-Trp-Cys)-NH2],8.65,9.62,,,,,pEC50 [3]: 6.29
CCCC[C@@H](C(=O)N[C@H]1CSSC[C@@H](C(N)=O)NC(=O)[C@H](Cc2c[nH]c3ccccc23)NC(=O)[C@H](CCCNC(=N)N)NC(=O)[C@@H](Cc2ccccc2)NC(=O)[C@H](Cc2cnc[nH]2)NC(=O)[C@@H](C)NC1=O)N1C(=O)N[C@@H](CC(C)C)C1=O [Hydantoin(C(O)-(Leu-Nle))-c(Cys-D-Ala-His-D-Phe-Arg-Trp-Cys)-NH2],8.01,8.74,,,,,
